Measured values: US5563172A, “Macrocyclic amide and urea immunomodulators” (Abbott Laboratories, priority 1994, dated 1996)

What follows are molecules tested on human mixed lymphocyte reaction (MLR) (assay: human mixed lymphocyte reaction (MLR) assay, immunosuppressant activity). Details: Table 1.
Assay type: cell-based
Description: The immunosuppressant activity of the compounds of the present invention was determined using the human mixed lymphocyte reaction (MLR) assay described by Kino, T. et al. in Transplantation Proceedings, XIX(5):36-39,Suppl. 6 (1987).

Row | Structure (SMILES) | IC50 [nM]
1 | CCOC(=O)COC1CCC(C=C(C)C2OC(=O)C3CCCCN3C(=O)C(=O)C3(O)OC(C(OC)CC(C)CC(C)=CC(CC)C(=O)CC(O)C2C)C(OC)CC3C)CC1OC (centres unmarked) [Example 1] | 0.9
2 | CCC1C=C(C)CC(C)CC(OC)C2OC(O)(C(=O)C(=O)N3CCCCC3C(=O)OC(C(C)=CC3CCC(OCC(=O)OCc4ccccc4)C(OC)C3)C(C)C(O)CC1=O)C(C)CC2OC (centres unmarked) [Example 2] | 7.6
3 | CCC1C=C(C)CC(C)CC(OC)C2OC(O)(C(=O)C(=O)N3CCCCC3C(=O)OC(C(C)=CC3CCC(OCC(=O)O)C(OC)C3)C(C)C(O)CC1=O)C(C)CC2OC (centres unmarked) [Example 3] | 140
4 | CCC1C=C(C)CC(C)CC(OC)C2OC(O)(C(=O)C(=O)N3CCCCC3C(=O)OC(C(C)=CC3CCC(OCC(=O)NCc4ccccc4)C(OC)C3)C(C)C(O)CC1=O)C(C)CC2OC (centres unmarked) [Example 4] | 0.5
5 | CCC1C=C(C)CC(C)CC(OC)C2OC(O)(C(=O)C(=O)N3CCCCC3C(=O)OC(C(C)=CC3CCC(OCC(N)=O)C(OC)C3)C(C)C(O)CC1=O)C(C)CC2OC (centres unmarked) [Example 6] | 0.1
6 | CCC1C=C(C)CC(C)CC(OC)C2OC(O)(C(=O)C(=O)N3CCCCC3C(=O)OC(C(C)=CC3CCC(OCC(=O)N4CCOCC4)C(OC)C3)C(C)C(O)CC1=O)C(C)CC2OC (centres unmarked) [Example 29] | 0.7
7 | CCC1C=C(C)CC(C)CC(OC)C2OC(O)(C(=O)C(=O)N3CCCCC3C(=O)OC(C(C)=CC3CCC(OCC(=O)NCCCO)C(OC)C3)C(C)C(O)CC1=O)C(C)CC2OC (centres unmarked) [Example 31] | 1.1
8 | CCC1C=C(C)CC(C)CC(OC)C2OC(O)(C(=O)C(=O)N3CCCCC3C(=O)OC(C(C)=CC3CCC(OCC(=O)NCC(=O)O)C(OC)C3)C(C)C(O)CC1=O)C(C)CC2OC (centres unmarked) [Example 39] | 173
9 | CCC1C=C(C)CC(C)CC(OC)C2OC(O)(C(=O)C(=O)N3CCCCC3C(=O)OC(C(C)=CC3CCC(OCC(=O)NN4CCOCC4)C(OC)C3)C(C)C(O)CC1=O)C(C)CC2OC (centres unmarked) [Example 51] | 0.3
10 | CCC1C=C(C)CC(C)CC(OC)C2OC(O)(C(=O)C(=O)N3CCCCC3C(=O)OC(C(C)=CC3CCC(OCC(=O)Nc4ccc(C(F)(F)F)cc4)C(OC)C3)C(C)C(O)CC1=O)C(C)CC2OC (centres unmarked) [Example 53] | 0.2
11 | CCC1C=C(C)CC(C)CC(OC)C2OC(O)(C(=O)C(=O)N3CCCCC3C(=O)OC(C(C)=CC3CCC(OCC(=O)Nc4ccc(F)cc4)C(OC)C3)C(C)C(O)CC1=O)C(C)CC2OC (centres unmarked) [Example 54] | 0.02
12 | CCC1C=C(C)CC(C)CC(OC)C2OC(O)(C(=O)C(=O)N3CCCCC3C(=O)OC(C(C)=CC3CCC(OCC(=O)Nc4cccnc4)C(OC)C3)C(C)C(O)CC1=O)C(C)CC2OC (centres unmarked) [Example 57] | 0.1
13 | CCC1C=C(C)CC(C)CC(OC)C2OC(O)(C(=O)C(=O)N3CCCCC3C(=O)OC(C(C)=CC3CCC(OCC(=O)Nc4ccncc4)C(OC)C3)C(C)C(O)CC1=O)C(C)CC2OC (centres unmarked) [Example 58] | 0.15
14 | CCC1C=C(C)CC(C)CC(OC)C2OC(O)(C(=O)C(=O)N3CCCCC3C(=O)OC(C(C)=CC3CCC(OCC(=O)Nc4ccccn4)C(OC)C3)C(C)C(O)CC1=O)C(C)CC2OC (centres unmarked) [Example 59] | 0.05

Continued, values first:

Row | IC50 [nM] | Structure (SMILES)
15 | 0.1 | CCC1C=C(C)CC(C)CC(OC)C2OC(O)(C(=O)C(=O)N3CCCCC3C(=O)OC(C(C)=CC3CCC(OCC(=O)NNC(=O)c4ccncc4)C(OC)C3)C(C)C(O)CC1=O)C(C)CC2OC (centres unmarked) [Example 71]
16 | 0.08 | CCC1C=C(C)CC(C)CC(OC)C2OC(O)(C(=O)C(=O)N3CCCCC3C(=O)OC(C(C)=CC3CCC(OCC(=O)Nc4cccc(F)c4)C(OC)C3)C(C)C(O)CC1=O)C(C)CC2OC (centres unmarked) [Example 72]
17 | 0.04 | CCC1C=C(C)CC(C)CC(OC)C2OC(O)(C(=O)C(=O)N3CCCCC3C(=O)OC(C(C)=CC3CCC(OCC(=O)Nc4cccc(O)c4)C(OC)C3)C(C)C(O)CC1=O)C(C)CC2OC (centres unmarked) [Example 73]
18 | 0.06 | CCC1C=C(C)CC(C)CC(OC)C2OC(O)(C(=O)C(=O)N3CCCCC3C(=O)OC(C(C)=CC3CCC(OCC(=O)N4CCN(C)CC4)C(OC)C3)C(C)C(O)CC1=O)C(C)CC2OC (centres unmarked) [Example 74]
19 | 0.3 | CCC1C=C(C)CC(C)CC(OC)C2OC(O)(C(=O)C(=O)N3CCCCC3C(=O)OC(C(C)=CC3CCC(OCC(=O)NCCc4ccccc4)C(OC)C3)C(C)C(O)CC1=O)C(C)CC2OC (centres unmarked) [Example 82]
20 | 0.4 | CCC1C=C(C)CC(C)CC(OC)C2OC(O)(C(=O)C(=O)N3CCCCC3C(=O)OC(C(C)=CC3CCC(OCC(=O)N(C)CCc4ccccc4)C(OC)C3)C(C)C(O)CC1=O)C(C)CC2OC (centres unmarked) [Example 83]
21 | 0.5 | CCC1C=C(C)CC(C)CC(OC)C2OC(O)(C(=O)C(=O)N3CCCCC3C(=O)OC(C(C)=CC3CCC(OCC(=O)Nc4ccccc4)C(OC)C3)C(C)C(O)CC1=O)C(C)CC2OC (centres unmarked) [Example 85]
22 | 1.1 | CCC1C=C(C)CC(C)CC(OC)C2OC(O)(C(=O)C(=O)N3CCCCC3C(=O)OC(C(C)=CC3CCC(OCC(=O)NCCCN4CCOCC4)C(OC)C3)C(C)C(O)CC1=O)C(C)CC2OC (centres unmarked) [Example 87]
23 | 0.1 | CCC1C=C(C)CC(C)CC(OC)C2OC(O)(C(=O)C(=O)N3CCCCC3C(=O)OC(C(C)=CC3CCC(OCC(=O)NCCN(C)C)C(OC)C3)C(C)C(O)CC1=O)C(C)CC2OC (centres unmarked) [Example 88]
24 | 0.5 | CCC1C=C(C)CC(C)CC(OC)C2OC(O)(C(=O)C(=O)N3CCCCC3C(=O)OC(C(C)=CC3CCC(OCC(=O)NCCCN(C)C)C(OC)C3)C(C)C(O)CC1=O)C(C)CC2OC (centres unmarked) [Example 89]
25 | 1.8 | CCC1C=C(C)CC(C)CC(OC)C2OC(O)(C(=O)C(=O)N3CCCCC3C(=O)OC(C(C)=CC3CCC(OCNC(=O)N4CCOCC4)C(OC)C3)C(C)C(O)CC1=O)C(C)CC2OC (centres unmarked) [Example 111]
26 | 0.1 | CCC1C=C(C)CC(C)CC(OC)C2OC(O)(C(=O)C(=O)N3CCCCC3C(=O)OC(C(C)=CC3CCC(OCNC(=O)Nc4ccccc4)C(OC)C3)C(C)C(O)CC1=O)C(C)CC2OC (centres unmarked) [Example 112]
